In the NIST ThermoML archive (doi:10.1021/je900437b):

Assay: xn = mol fraction of the nth substance listed
Settings: 101 kPa, Liquid; for speed of sound: Sing-around technique in a fixed-path interferometer; for mass density: Vibrating tube method

CC(C)(N)CO [2-amino-2-methylpropan-1-ol] + NCCO
Settings	mass density [kg/m3]	speed of sound [m/s]
293.15 K, x2 = 0	936.751	1501.4
293.15 K, x2 = 0.141	944.932	1525.9
293.15 K, x2 = 0.2691	953.001	1550.2
293.15 K, x2 = 0.3862	961.121	1574
293.15 K, x2 = 0.4939	969.165	1597.6
293.15 K, x2 = 0.5933	977.051	1621.2
293.15 K, x2 = 0.6869	984.969	1645.1
293.15 K, x2 = 0.7724	992.742	1668.2
293.15 K, x2 = 0.8532	1000.62	1691
293.15 K, x2 = 0.9268	1008.22	1712.6
298.15 K, x2 = 0	932.596	1483.4
298.15 K, x2 = 0.141	940.731	1508.3
298.15 K, x2 = 0.2691	948.799	1533
298.15 K, x2 = 0.3862	956.918	1557.1
298.15 K, x2 = 0.4939	964.959	1580.9
298.15 K, x2 = 0.5933	972.875	1604.7
298.15 K, x2 = 0.6869	980.811	1628.8
298.15 K, x2 = 0.7724	988.58	1652
298.15 K, x2 = 0.8532	996.465	1674.8
298.15 K, x2 = 0.9268	1004.08	1696.5
303.15 K, x2 = 0	928.395	1461.2
303.15 K, x2 = 0.141	936.493	1486.9
303.15 K, x2 = 0.2691	944.603	1512.3
303.15 K, x2 = 0.3862	952.718	1537.1
303.15 K, x2 = 0.4939	960.768	1561.6
303.15 K, x2 = 0.5933	968.682	1585.9
303.15 K, x2 = 0.6869	976.624	1610.5
303.15 K, x2 = 0.7724	984.413	1634.3
303.15 K, x2 = 0.8532	992.305	1657.7
303.15 K, x2 = 0.9268	999.98	1679.9
308.15 K, x2 = 0	924.174	1442.4
308.15 K, x2 = 0.141	932.236	1468.5
308.15 K, x2 = 0.2691	940.355	1494.4
308.15 K, x2 = 0.3862	948.482	1519.5
308.15 K, x2 = 0.4939	956.545	1544.3
308.15 K, x2 = 0.5933	964.465	1569
308.15 K, x2 = 0.6869	972.442	1593.8
308.15 K, x2 = 0.7724	980.259	1617.7
308.15 K, x2 = 0.8532	988.206	1641.2
308.15 K, x2 = 0.9268	995.885	1663.6
313.15 K, x2 = 0	919.945	1423.8
313.15 K, x2 = 0.141	927.969	1450.4
313.15 K, x2 = 0.2691	936.091	1476.5
313.15 K, x2 = 0.3862	944.248	1501.9
313.15 K, x2 = 0.4939	952.319	1527
313.15 K, x2 = 0.5933	960.252	1551.9
313.15 K, x2 = 0.6869	968.25	1576.9
313.15 K, x2 = 0.7724	976.093	1601
313.15 K, x2 = 0.8532	984.066	1624.7
313.15 K, x2 = 0.9268	991.791	1647.3
318.15 K, x2 = 0	915.702	1405.3
318.15 K, x2 = 0.141	923.687	1432.2
318.15 K, x2 = 0.2691	931.816	1458.6
318.15 K, x2 = 0.3862	940.009	1484.3
318.15 K, x2 = 0.4939	948.077	1509.7
318.15 K, x2 = 0.5933	956.017	1534.8
318.15 K, x2 = 0.6869	964.037	1559.9
318.15 K, x2 = 0.7724	971.917	1584.1
318.15 K, x2 = 0.8532	979.896	1608
318.15 K, x2 = 0.9268	987.66	1630.8
323.15 K, x2 = 0	911.431	1386.9
323.15 K, x2 = 0.141	919.381	1414.2
323.15 K, x2 = 0.2691	927.518	1440.8
323.15 K, x2 = 0.3862	935.735	1466.7
323.15 K, x2 = 0.4939	943.814	1492.3
323.15 K, x2 = 0.5933	951.753	1517.7
323.15 K, x2 = 0.6869	959.804	1542.9
323.15 K, x2 = 0.7724	967.721	1567.2
323.15 K, x2 = 0.8532	975.738	1591.3
323.15 K, x2 = 0.9268	983.527	1614.4

CN(CCO)CCO [N-methyldiethanolamine] + NCCO
Settings	mass density [kg/m3]	speed of sound [m/s]
293.15 K, x2 = 0	1042.2	1585.5
293.15 K, x2 = 0.1789	1040.32	1603.7
293.15 K, x2 = 0.3286	1038.49	1622.3
293.15 K, x2 = 0.456	1036.46	1640
293.15 K, x2 = 0.5691	1034.2	1656.3
293.15 K, x2 = 0.6614	1031.81	1671.6
293.15 K, x2 = 0.7451	1029.17	1686
293.15 K, x2 = 0.8197	1026.39	1698.7
293.15 K, x2 = 0.854	1025	1705.5
293.15 K, x2 = 0.8865	1023.48	1712
293.15 K, x2 = 0.9461	1020.22	1723.3
293.15 K, x2 = 0.9738	1018.27	1729.4
298.15 K, x2 = 0	1038.29	1570.1
298.15 K, x2 = 0.1789	1036.35	1588.5
298.15 K, x2 = 0.3286	1034.46	1607.1
298.15 K, x2 = 0.456	1032.46	1624.7
298.15 K, x2 = 0.5691	1030.16	1641
298.15 K, x2 = 0.6614	1027.72	1656.2
298.15 K, x2 = 0.7451	1025.1	1670.5
298.15 K, x2 = 0.8197	1022.32	1683.1
298.15 K, x2 = 0.854	1020.84	1689.8
298.15 K, x2 = 0.8865	1019.33	1696.3
298.15 K, x2 = 0.9461	1016.09	1707.3
298.15 K, x2 = 0.9738	1014.2	1713.3
303.15 K, x2 = 0	1034.36	1554.8
303.15 K, x2 = 0.1789	1032.34	1573.4
303.15 K, x2 = 0.3286	1030.41	1591.9
303.15 K, x2 = 0.456	1028.38	1609.4
303.15 K, x2 = 0.5691	1026.07	1625.7
303.15 K, x2 = 0.6614	1023.61	1640.8
303.15 K, x2 = 0.7451	1020.96	1655
303.15 K, x2 = 0.8197	1018.17	1667.5
303.15 K, x2 = 0.854	1016.66	1674.1
303.15 K, x2 = 0.8865	1015.15	1680.6
303.15 K, x2 = 0.9461	1011.9	1691.5
303.15 K, x2 = 0.9738	1009.95	1697.5
308.15 K, x2 = 0	1030.43	1539.5
308.15 K, x2 = 0.1789	1028.36	1558.2
308.15 K, x2 = 0.3286	1026.41	1576.6
308.15 K, x2 = 0.456	1024.37	1594
308.15 K, x2 = 0.5691	1022.01	1610.2
308.15 K, x2 = 0.6614	1019.55	1625.2
308.15 K, x2 = 0.7451	1016.86	1639.4
308.15 K, x2 = 0.8197	1014.03	1651.8
308.15 K, x2 = 0.854	1012.55	1658.3
308.15 K, x2 = 0.8865	1011.03	1664.7
308.15 K, x2 = 0.9461	1007.83	1675.5
308.15 K, x2 = 0.9738	1005.91	1681.3
313.15 K, x2 = 0	1026.48	1524.2
313.15 K, x2 = 0.1789	1024.36	1543
313.15 K, x2 = 0.3286	1022.38	1561.3
313.15 K, x2 = 0.456	1020.33	1578.7
313.15 K, x2 = 0.5691	1017.96	1594.7
313.15 K, x2 = 0.6614	1015.47	1609.7
313.15 K, x2 = 0.7451	1012.76	1623.8
313.15 K, x2 = 0.8197	1009.92	1636
313.15 K, x2 = 0.854	1008.44	1642.5
313.15 K, x2 = 0.8865	1006.91	1648.8
313.15 K, x2 = 0.9461	1003.74	1659.5
313.15 K, x2 = 0.9738	1001.87	1665.2
318.15 K, x2 = 0	1022.53	1508.8
318.15 K, x2 = 0.1789	1020.38	1527.7
318.15 K, x2 = 0.3286	1018.35	1546
318.15 K, x2 = 0.456	1016.27	1563.2
318.15 K, x2 = 0.5691	1013.89	1579.2
318.15 K, x2 = 0.6614	1011.39	1594.1
318.15 K, x2 = 0.7451	1008.66	1608
318.15 K, x2 = 0.8197	1005.81	1620.2
318.15 K, x2 = 0.854	1004.31	1626.6
318.15 K, x2 = 0.8865	1002.79	1632.8
318.15 K, x2 = 0.9461	999.607	1643.3
318.15 K, x2 = 0.9738	997.788	1649
323.15 K, x2 = 0	1018.58	1493.4
323.15 K, x2 = 0.1789	1016.38	1512.4
323.15 K, x2 = 0.3286	1014.32	1530.6
323.15 K, x2 = 0.456	1012.2	1547.7
323.15 K, x2 = 0.5691	1009.81	1563.6
323.15 K, x2 = 0.6614	1007.31	1578.4
323.15 K, x2 = 0.7451	1004.57	1592.2
323.15 K, x2 = 0.8197	1001.7	1604.3
323.15 K, x2 = 0.854	1000.21	1610.7
323.15 K, x2 = 0.8865	998.693	1616.8
323.15 K, x2 = 0.9461	995.464	1627.2
323.15 K, x2 = 0.9738	993.693	1632.8
